Results from patent US20150086643A1, “TRADITIONAL CHINESE MEDICINE COMPOUND ANTITUMOR NANO PREPARATION AND USE THEREOF” (priority 2013, published 2015).

Tested on: H22 hepatoma carcinoma cells
Assay: In-vivo tumor inhibitory effect in H22 tumor-bearing Kunming mice
Experimental: The tumor-bearing Kunming mice are used to evaluate the in-vivo tumor inhibitory effect of the compound multiple-unit capsule of the present invention. Inoculating H22 hepatoma carcinoma cells (provided by Shanghai Institute of Materia Medica of Chinese Academy of Sciences) to enterocoelia of mice, taking out the H22 cells cultivated in the enterocoelia of mice after 6-8 days and preparing into homogeneous suspension with PBS; subcutaneously inoculating 0.2 mL of H22 cells (2×10^6/mL) to right axilla of each mouse. After inoculation, the mice are divided into 5 groups, 10 mice for each group: (1) Normal saline group (blank control), (2) 5-FU group (positive control), (3) 0.5% CMC-Na group, (4) Niu Huang Xing Xiao pill group and (5) Compound multiple-unit capsule group. The 5-FU group is subjected to administration through intraperitoneal injection, once every two days, with the dosage being 25 mg/kg. And the other four groups are subjected to intragastric administration. Preparation method of the Niu Huang Xing Xiao pill group and the compound multiple-unit capsule group is as follows: taking prescription amount of each component, adding the components into 0.5% CMC-Na water solution to prepare suspension. The concentration of drug for administration according to the original prescription for the groups (4) and (5) is 450 mg/kg (with the concentration of realgar being about 75 mg/kg). The tumor inhibiting rate is calculated with the following formula:
Tumor inhibiting rate=(C−T)/C×100%; C and T being average weight of the tumors on mice of the blank control and the treatment group.

O=c1[nH]cc(F)c(=O)[nH]1 [Example 5-FU, 5-FU]
Weight of mice (g) After (after treatment, n=10): 24.20 ± 1.75 g
Weight of mice (g) Before (before treatment, n=10): 20.20 ± 0.92 g
Weight of tumor (n=10, 5-FU 25 mg/kg i.p. once every two days, pill and capsule 450 mg/kg intragastric): 0.50 ± 0.13 g
Tumor inhibiting rate (%) (n=10, (C−T)/C×100% vs blank control, 5-FU 25 mg/kg i.p., pill and capsule 450 mg/kg intragastric): 67.95%
